The values below come from patent publication US20260078119A1, “DEGRADER COMPOUNDS AND USES THEREOF” (Bristol-Myers Squibb Company, priority 2024, published 2026).

Read-outs that look alike come from different tables or passages of the source.

Usually EC50 stands for the concentration at which the effect is half-maximal.

The target in one test is T1, FAK (Homo sapiens, UniProt Q05397).
T1 construct: homozygous knock-in of a HiBiT tag (Promega Corporation, Madison, WI) to the C-terminus of the FAK gene in its natural genomic locus; endogenous in cells; host or cells: JHH-4-FAK-HiBiT clone d01 (CRISPR-Cas9 knock-in at the endogenous locus)
T1 sequence (Q05397 whole entry): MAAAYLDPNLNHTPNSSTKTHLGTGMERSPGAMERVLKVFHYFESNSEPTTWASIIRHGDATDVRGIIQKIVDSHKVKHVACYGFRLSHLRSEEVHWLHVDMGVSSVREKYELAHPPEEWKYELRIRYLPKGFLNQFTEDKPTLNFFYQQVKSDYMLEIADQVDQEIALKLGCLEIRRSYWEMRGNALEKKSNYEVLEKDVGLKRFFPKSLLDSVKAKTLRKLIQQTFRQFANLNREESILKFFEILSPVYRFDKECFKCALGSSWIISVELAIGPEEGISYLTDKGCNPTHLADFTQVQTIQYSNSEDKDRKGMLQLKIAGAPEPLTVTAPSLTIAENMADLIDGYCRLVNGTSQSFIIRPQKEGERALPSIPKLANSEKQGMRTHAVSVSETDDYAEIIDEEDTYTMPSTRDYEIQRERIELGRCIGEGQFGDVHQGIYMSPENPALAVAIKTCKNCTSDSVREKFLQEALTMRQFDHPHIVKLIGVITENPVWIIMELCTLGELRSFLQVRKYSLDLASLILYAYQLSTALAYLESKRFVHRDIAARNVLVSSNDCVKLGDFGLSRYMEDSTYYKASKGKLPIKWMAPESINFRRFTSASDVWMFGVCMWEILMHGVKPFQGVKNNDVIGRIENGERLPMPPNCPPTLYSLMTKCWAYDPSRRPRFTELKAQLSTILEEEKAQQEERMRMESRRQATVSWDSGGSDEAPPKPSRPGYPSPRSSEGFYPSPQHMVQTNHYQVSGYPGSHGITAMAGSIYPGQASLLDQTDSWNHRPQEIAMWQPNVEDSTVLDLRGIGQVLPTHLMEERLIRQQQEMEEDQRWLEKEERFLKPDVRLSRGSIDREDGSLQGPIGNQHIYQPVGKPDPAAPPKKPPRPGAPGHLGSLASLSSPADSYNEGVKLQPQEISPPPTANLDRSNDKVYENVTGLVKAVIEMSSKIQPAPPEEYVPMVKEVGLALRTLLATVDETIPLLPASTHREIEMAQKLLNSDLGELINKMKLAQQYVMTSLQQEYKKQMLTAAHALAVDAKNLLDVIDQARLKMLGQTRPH
Put plainly: FAK-HiBiT Degradation Assay. The format is cell-based. As to conditions: for DC50: read-out: FAK HiBiT EC50; for FAK HiBiT Ymin: lower limit of the four parameter fit (value A), Ymax derived using DMSO control, JHH-4-FAK-HiBiT cells, two hours. An outline of the steps:
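JHH-4 cells with homozygous CRISPR knock-in of C-terminal HiBiT on endogenous FAK, treated 2 h at 37 °C with compounds in 10-point 3-fold series from 1 μM. HiBiT lytic luminescence read; EC50 from four-parameter logistic fit, Ymax set by DMSO control, Ymin as lower fit limit.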
(HiBiT is a short tag that completes a luciferase, so light tracks the accessible tagged protein.)

For the next test, the system named is CAL-51 cells. The test can be described thus: CAL-51 Cell Proliferation Assay. The format is cell-based. The following applies: for EC50: 120 hours incubation, 10-point dose response, 4-fold dilutions starting at 10 μM, Cell-Titer-Glo, read-out: CAL-51 Prolif EC50; for CAL-51 Prolif Ymin: minimal percent of DMSO control observed in the concentrations tested (Ymin-obs), 120 hours. The text has this: CAL-51 cells were obtained from Bristol Myers Squibb internal cell banks (originally sourced from DSMZ-German Collection of Microorganisms and Cell Cultures GmbH, Germany) and cultured in RPMI complete media (RPMI-1640, 10% Fetal Bovine serum, 1× Antibiotic-Antimycotic, and 1× Non-Essential Amino Acids). Compounds were dispensed into 384-well plates using an acoustic dispenser (Beckman Coulter Life Sciences, Carlsbad, CA) in duplicate with 14 compounds on each plate. For each compound, a 10-point dose response was printed at 4-fold dilutions starting at 10 μM. The DMSO concentration was kept constant for a final assay concentration of 0.1% per well assuming 50 uL final media volume. Compound plates were sealed and frozen at −20° C. until use.
For each assay batch, compound plates were thawed and allowed to reach room temperature, and cells were seeded at 350 cells per well in 50 μl complete RPMI media. After 120 hours of incubation at 37° C. and 5% CO2, cells were lysed by addition of 25 μL of Cell-Titer-Glo Reagent (Promega Corporation, Madison, WI), as per manufacturer's instructions, protected from light, shaken for 20 minutes, and total luminescence read by a CLARIOstar Plus plate reader (BMG LabTech, Cary, NC). Total luminescence signal is linearly correlated with cell number remaining in the well.
Luminescence data was processed per plate by subtracting reagent-only “blank” well luminescence from all measured values and calculating a percent of DMSO control value for each treatment well. Then, to determine the half-maximal effective concentration (EC50) values for cell growth inhibition, a four parameter logistic model was fit to the data for each DMSO-normalized compound: Sigmoidal Dose-Response Model: (FIT=(A+((B−A)/1+((C/x)^D)))) where C is the inflection point (EC50), D is the Hill slope, and A and B are the low and high limits of the fit respectively. The lower limit of the fit (value A) is referred to as Ymin-calculated. The minimal percent of DMSO control that is observed in the concentrations tested for each compound is labeled as “Ymin-obs”, and was recorded and reported in the tables. Sigmoidal fit curves were processed and evaluated using Dotmatics Atlas (Insightful Science, LLC, Boston, MA).

[1] abbreviates: JHH-4-FAK-HiBiT clone d01 cells, two hours incubation, 10-point dose response, 3-fold dilution starting at 1 μM, Nano-Glo HiBiT luminescence.

As for `O=C1CCC(N2Cc3cc(Cn4ncc5c(-c6ncccc6C(F)(F)F)cc(N6CC(F)C6)nc54)ccc3C2=O)C(=O)N1` (centres unmarked) [Example 79, 3-(5-{[6-(3-fluoroazetidin-1-yl)-4-[3-(trifluoromethyl)pyridin-2-yl]-1H-pyrazolo[3,4-b]pyridin-1-yl]methyl}-1-oxo-2,3-dihydro-1H-isoindol-2-yl)piperidine-2,6-dione], at FAK (setting [1]), the DC50 was 8.56 nM. The “FAK HiBiT Ymin” value at FAK is 10.79. The EC50 with CAL-51 cells (Homo sapiens) was 3.22 nM. Moreover, the “CAL-51 Prolif Ymin” value in the test with CAL-51 cells was found to be 23.53.
Taken in the same sequence, the figures for `N#Cc1cnc(-c2cc(N3CC[C@H](O)C3)nc3c2cnn3Cc2ccc3c(c2)CN([C@H]2CCC(=O)NC2=O)C3=O)c(F)c1` [Example 121, 6-[1-({2-[(3S)-2,6-dioxopiperidin-3-yl]-1-oxo-2,3-dihydro-1H-isoindol-5-yl}methyl)-6-[(3S)-3-hydroxypyrrolidin-1-yl]-1H-pyrazolo[3,4-b]pyridin-4-yl]-5-fluoropyridine-3-carbonitrile] were 95.4 nM, 40.50, 1360 nM and 75.47.
For `O=C1CC[C@H](N2Cc3cc(Cn4ncc5c(-c6ccc(F)cc6F)cc(N6CC(F)C6)nc54)ccc3C2=O)C(=O)N1` [Example 30, (3S)-3-(5-{[4-(2,4-difluorophenyl)-6-(3-fluoroazetidin-1-yl)-1H-pyrazolo[3,4-b]pyridin-1-yl]methyl}-1-oxo-2,3-dihydro-1H-isoindol-2-yl)piperidine-2,6-dione], in that order: 0.72 nM, 7.40, 0.77 nM and 26.67.
Taken in the same sequence, the figures for `COc1cnc(-c2cc(N3CC(F)C3)nc3c2cnn3Cc2ccc3c(c2)CN(C2CCC(=O)NC2=O)C3=O)c(Cl)c1` (centres unmarked) [Example 69, 3-(5-{[4-(3-chloro-5-methoxypyridin-2-yl)-6-(3-fluoroazetidin-1-yl)-1H-pyrazolo[3,4-b]pyridin-1-yl]methyl}-1-oxo-2,3-dihydro-1H-isoindol-2-yl)piperidine-2,6-dione] were 5.55 nM, 9.26, 1.84 nM and 23.38.
Turning to `O=C1CC[C@H](N2Cc3cc(Cn4ncc5c(-c6ccc(F)cc6F)cc(N6CC[C@H](O)C6)nc54)ccc3C2=O)C(=O)N1` [Example 95, (3S)-3-(5-{[4-(2,4-difluorophenyl)-6-[(3S)-3-hydroxypyrrolidin-1-yl]-1H-pyrazolo[3,4-b]pyridin-1-yl]methyl}-1-oxo-2,3-dihydro-1H-isoindol-2-yl)piperidine-2,6-dione], at FAK (setting [1]), the DC50 came to 19.9 nM. Also, the “FAK HiBiT Ymin” value at FAK came out at 22.15. In addition, in the test with CAL-51 cells (Homo sapiens), the EC50 stood at 13.5 nM. Also, in the test on CAL-51 cells, the “CAL-51 Prolif Ymin” value is given as 46.68.
Taken in the same sequence, the figures for `COc1cc(C2CC2)cnc1-c1cc(N2CC(F)C2)nc2c1cnn2Cc1ccc2c(c1)CN(C1CCC(=O)NC1=O)C2=O` (centres unmarked) [Example 135, 3-(5-{[4-(5-cyclopropyl-3-methoxypyridin-2-yl)-6-(3-fluoroazetidin-1-yl)-1H-pyrazolo[3,4-b]pyridin-1-yl]methyl}-1-oxo-2,3-dihydro-1H-isoindol-2-yl)piperidine-2,6-dione] were at least 1000 nM, 87.67, at least 10000 nM and 84.14.
For `O=C1CCC(N2Cc3cc(Cn4ncc5c(-c6ncc(C(F)(F)F)cc6Cl)cc(NC6CC6)nc54)ccc3C2=O)C(=O)N1` (centres unmarked) [Example 98, 3-[5-({4-[3-chloro-5-(trifluoromethyl)pyridin-2-yl]-6-(cyclopropyl-amino)-1H-pyrazolo[3,4-b]pyridin-1-yl}methyl)-1-oxo-2,3-dihydro-1H-isoindol-2-yl]piperidine-2,6-dione], in that order: 24.4 nM, 32.32, 3.66 nM and 39.93.
For the compound `CN(c1cc(-c2ncc(C(F)(F)F)cc2Cl)c2cnn(Cc3ccc4c(c3)CN([C@H]3CCC(=O)NC3=O)C4=O)c2n1)C1CC(O)C1` (stereo partly drawn) [Example 64, (3S)-3-[5-({4-[3-chloro-5-(trifluoromethyl)pyridin-2-yl]-6-{methyl[(1s,3s)-3-hydroxycyclobutyl]amino}-1H-pyrazolo[3,4-b]pyridin-1-yl}methyl)-1-oxo-2,3-dihydro-1H-isoindol-2-yl]piperidine-2,6-dione], at FAK (setting [1]), a half-maximal effect (EC50) was put at 4.29 nM. Besides, the “FAK HiBiT Ymin” value at FAK is listed as 9.77. In addition, in the test with CAL-51 cells, the EC50 was 2.32 nM and the “CAL-51 Prolif Ymin” value was 32.02.
Consider `O=C1CCC(N2Cc3cc(Cn4ncc5c(-c6ncc(Cl)cc6Cl)c(F)c(N6CC(F)C6)nc54)ccc3C2=O)C(=O)N1` (centres unmarked) [Example 8, 3-(5-{[4-(3,5-dichloropyridin-2-yl)-5-fluoro-6-(3-fluoroazetidin-1-yl)-1H-pyrazolo[3,4-b]pyridin-1-yl]methyl}-1-oxo-2,3-dihydro-1H-isoindol-2-yl)piperidine-2,6-dione], for which the DC50 at FAK (setting [1]) was determined as 0.55 nM. The “FAK HiBiT Ymin” value on FAK is listed as 9.05. Also, in the test with CAL-51 cells (Homo sapiens), the EC50 is 0.85 nM. The “CAL-51 Prolif Ymin” value in the test with CAL-51 cells was 17.44.
Taken in the same sequence, the figures for `CC(C)(O)c1cnc(-c2cc(N3CC(F)C3)nc3c2cnn3Cc2ccc3c(c2)CN([C@H]2CCC(=O)NC2=O)C3=O)c(Cl)c1` [Example 119, (3S)-3-[5-({4-[3-chloro-5-(2-hydroxypropan-2-yl)pyridin-2-yl]-6-(3-fluoroazetidin-1-yl)-1H-pyrazolo[3,4-b]pyridin-1-yl}methyl)-1-oxo-2,3-dihydro-1H-isoindol-2-yl]piperidine-2,6-dione] were 84.9 nM, 40.36, 27 nM and 59.05.
Taken in the same sequence, the figures for `C[C@]1(O)CCN(c2nc3c(cnn3Cc3ccc4c(c3)CN([C@H]3CCC(=O)NC3=O)C4=O)c(-c3ncc(C(F)(F)F)cc3Cl)c2F)C1` [Example 140, (3S)-3-[5-({4-[3-chloro-5-(trifluoromethyl)pyridin-2-yl]-5-fluoro-6-[(3S)-3-hydroxy-3-methylpyrrolidin-1-yl]-1H-pyrazolo[3,4-b]pyridin-1-yl}methyl)-1-oxo-2,3-dihydro-1H-isoindol-2-yl]piperidine-2,6-dione] were 3.11 nM, 9.35, 2.2 nM and 29.76.
For `O=C1CC[C@H](N2Cc3cc(Cn4ncc5c(-c6ncc(C(F)(F)F)cc6Cl)cc(N6CC(F)C6)nc54)ccc3C2=O)C(=O)N1` [Example 6, (3S)-3-[5-({4-[3-chloro-5-(trifluoromethyl)pyridin-2-yl]-6-(3-fluoroazetidin-1-yl)-1H-pyrazolo[3,4-b]pyridin-1-yl}methyl)-1-oxo-2,3-dihydro-1H-isoindol-2-yl]piperidine-2,6-dione], in that order: 0.5 nM, 8.05, 0.4 nM and 31.07.
Take `C[C@]1(O)CCN(c2cc(-c3ccc(C#N)cc3F)c3cnn(Cc4ccc5c(c4)CN(C4CCC(=O)NC4=O)C5=O)c3n2)C1` (stereo partly drawn) [Example 115, 4-(1-{[2-(2,6-dioxopiperidin-3-yl)-1-oxo-2,3-dihydro-1H-isoindol-5-yl]methyl}-6-[(3S)-3-hydroxy-3-methylpyrrolidin-1-yl]-1H-pyrazolo[3,4-b]pyridin-4-yl)-3-fluorobenzonitrile]: the DC50 on FAK (setting [1]) is 65.3 nM. The “FAK HiBiT Ymin” value at FAK came out at 53.22. Besides, in the test with CAL-51 cells (Homo sapiens), the EC50 is 118 nM. Besides, in the test on CAL-51 cells, the “CAL-51 Prolif Ymin” value worked out at 59.97.
Taken in the same sequence, the figures for `O=C1CC[C@@H](N2Cc3c(ccc(Cn4ncc5c(-c6ncc(F)cc6Cl)cc(N6CC(F)C6)nc54)c3F)C2=O)C(=O)N1` (single isomer, unassigned) [Example 109] were 42.1 nM, 11.09, 10.2 nM and 35.33.
